Experimental data reported in PMC7796031, “Studies of Coumarin Derivatives for Constitutive Androstane Receptor (CAR) Activation” (Molecules, 2020).

Tested on: CAR protein
Experiment: Immunofluorescence staining for CAR translocation in Hep3B cells
Type: cell-based, human
Conditions: 10 μM, 2 h
Protocol: Figure 3 Image of immunofluorescence staining for CAR translocation in Hep3B cells after 6,7-diprenoxycoumarin (50) treatment (A) and scoparone treatment (C). Hep3B cells were treated with 50 (10 μM) for 2 h. The negative control group was pre-treated with 10 nM okadaic acid (OA). The blue and green fluorescence stands for signals of nuclei and CAR protein, respectively. The protein expression of nuclear CAR after 6,7-diprenoxycoumarin (50) treatment for 2 h (B).
Hep3B cells (4 × 10^5) were grown on coverslips for overnight then washed twice with 1× PBS and fixed with 4% paraformaldehyde in 1× PBS for 30 min at room temperature. Cells were then permeabilized with 1× PBS containing 0.1% (v/v) Triton X-100 for 10–15 min and blocked in 1× PBS containing 5% BSA for 1 h at room temperature. CAR antibody (1:200 dilutions) was added and reacted at room temperature for 2 h in 1× PBS containing 5% BSA. FITC-conjugated goat anti-rabbit IgG antibody was added for another 1 h at room temperature. Coverslips were mounted and images were acquired under a fluorescence microscope.

CC(C)=CCOc1cc2ccc(=O)oc2cc1OCC=C(C)C [Compound 50, 6,7-diprenoxycoumarin]
translocation of CAR protein: confirmed
